Patent publication EP4567035A1, “NOVEL COMPOUND AS HYPOXIA-INDUCIBLE FACTOR 1(HIF-1) INHIBITOR OR VASCULAR ENDOTHELIAL GROWTH FACTOR (VEGF) INHIBITOR, AND PHARMACEUTICAL COMPOSITION COMPRISING SAME” (Nextgen Bioscience Co., Ltd., priority 2022, dated 2024)

Key:
HIF-1α = target: T1, HIF-1α (Homo sapiens, UniProt Q16665); assay: Analysis of HIF-1α protein expression (Western blot) in ARPE-19 cells under mixed hypoxic condition; assay type: cell-based; conditions: values marked * in the table, mixed hypoxic condition (1% oxygen + CoCl2) for 24 hours, concentration range at which HIF-1α expression is reduced by 50% vs untreated control, read-out: IC50 HIF-1α, Hypoxia(24h)
T1 construct: endogenous in cells; host or cells: ARPE-19 (ATCC CRL-2302)
T1 sequence (Q16665 whole entry): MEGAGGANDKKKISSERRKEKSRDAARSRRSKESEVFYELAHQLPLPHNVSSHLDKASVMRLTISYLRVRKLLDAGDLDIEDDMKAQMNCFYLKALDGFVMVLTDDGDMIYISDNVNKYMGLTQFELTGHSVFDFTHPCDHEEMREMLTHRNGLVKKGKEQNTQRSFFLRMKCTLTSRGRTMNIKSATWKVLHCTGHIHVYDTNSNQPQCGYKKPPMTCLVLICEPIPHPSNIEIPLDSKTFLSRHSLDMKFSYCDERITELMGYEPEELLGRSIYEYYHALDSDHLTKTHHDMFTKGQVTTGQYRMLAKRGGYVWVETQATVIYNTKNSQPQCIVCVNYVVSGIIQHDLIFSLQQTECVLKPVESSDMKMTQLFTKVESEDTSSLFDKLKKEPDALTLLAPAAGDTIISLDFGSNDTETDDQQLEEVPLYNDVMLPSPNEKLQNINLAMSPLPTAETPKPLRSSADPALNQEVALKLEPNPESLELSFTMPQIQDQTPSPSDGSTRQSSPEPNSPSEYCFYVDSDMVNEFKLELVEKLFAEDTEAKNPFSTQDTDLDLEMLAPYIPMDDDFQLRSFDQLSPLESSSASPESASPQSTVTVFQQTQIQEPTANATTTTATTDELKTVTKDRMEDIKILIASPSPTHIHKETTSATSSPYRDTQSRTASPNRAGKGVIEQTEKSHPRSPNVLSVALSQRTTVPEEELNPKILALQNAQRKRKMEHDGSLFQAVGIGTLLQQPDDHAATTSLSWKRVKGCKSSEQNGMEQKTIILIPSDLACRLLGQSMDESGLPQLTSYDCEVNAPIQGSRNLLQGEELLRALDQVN
Summary of the method: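 ARPE-19 cells were pretreated 16 h or 2 h with compound (0.1 nM–10 µM, serum-free DMEM/F12), then held 1 h or 24 h in mixed hypoxia (1% O2 plus CoCl2). HIF-1α was quantified by Western blot against β-actin; the concentration range giving ≥50% reduction vs untreated control was reported.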

VEGF = assay: Evaluation of VEGF protein secretion level (Human VEGF ELISA) in ARPE-19 cell medium under hypoxic conditions; assay type: cell-based; conditions: ARPE-19 cells; pretreated 2 hours, 24 hours hypoxic conditions; secreted VEGF in medium supernatant by ELISA; concentration range reducing VEGF by 50% vs untreated control; read-out: IC50 VEGF
Summary of the method: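 Human ARPE-19 cells were pretreated 2 h with compound (0.1 nM–10 µM, in DMEM/F12 with 1% FBS), then held 24 h in hypoxia (1% O2, 5% CO2). Secreted VEGF in the supernatant was quantified by ELISA (A450). The value is the concentration range giving ≥50% VEGF reduction versus untreated control.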

Structure (SMILES)	DC50 (HIF-1α) [µM]	IC50 (VEGF) [µM]
O=C(NCc1cc(F)cc(-c2cnn(C3CCOC3)c2)c1)c1ncnc2nc(C3CCCC3)[nH]c12 (stereo not drawn) [Example 140, 8-Cyclopentyl-N-(3-fluoro-5-(1-(tetrahydrofuran-3-yl)-1H-pyrazol-4-yl)benzyl)-7H-purine-6-carboxamide]	< 0.1	> 10
Cn1ccc(Nc2cc(F)cc(CNC(=O)c3ncnc4nc(C5CCCC5)[nH]c34)c2)c1 [Example 142, 8-Cyclopentyl-N-(3-fluoro-5-((1-methyl-1H-pyrrol-3-yl)amino)benzyl)-7H-purine-6-carboxamide]	0.1 to 1	> 10
O=C(NCc1cc(F)cc(-c2cnn(-c3cc[s+]([O-])c3)c2)c1)c1ncnc2nc(C3CCCC3)[nH]c12 (stereo not drawn) [Example 143, 8-Cyclopentyl-N-(3-fluoro-5-(1-(1-oxidothiophen-3-yl)-1H-pyrazol-4-yl)benzyl)-7H-purine-6-carboxamide]	1 to 10	> 10
Cn1cc(Nc2cc(F)cc(CNC(=O)c3ncnc4nc(C5CCC(F)(F)C5)[nH]c34)c2)cn1 (stereo not drawn) [Example 144, 8-(3,3-Difluorocyclopentyl)-N-(3-fluoro-5-((1-methyl-1H-pyrazol-4-yl)amino)benzyl)-7H-purine-6-carboxamide]	< 0.1	0.1 to 1
[2H]c1c([2H])c([2H])c(-n2cc(-c3cc(F)cc(CNC(=O)c4ncnc5nc(C6CCCC6)[nH]c45)c3)cn2)c([2H])c1[2H] [Example 145, 8-Cyclopentyl-N-(3-fluoro-5-(1-phenyl-d5-1H-pyrazol-4-yl)benzyl)-7H-purine-6-carboxamide]	< 0.1	0.1 to 1
Cc1c(-c2cc(F)cc(CNC(=O)c3ncnc4nc(C5CCCC5)[nH]c34)c2)cnn1-c1ccc(F)cc1 [Example 147, 8-Cyclopentyl-N-(3-fluoro-5-(1-(4-fluorophenyl)-5-methyl-1H-pyrazol-4-yl)benzyl)-7H-purine-6-carboxamide]	0.1 to 1	0.1 to 1
[2H]c1c([2H])c([2H])c(-n2cc(-c3cc(F)cc(CNC(=O)c4ncnc5nc(C6CCC(F)(F)C6)[nH]c45)c3)cn2)c([2H])c1[2H] (stereo not drawn) [Example 148, 8-(3,3-Difluorocyclopentyl)-N-(3-fluoro-5-(1-(phenyl-d5)-1H-pyrazol-4-yl)benzyl)-7H-purine-6-carboxamide]	< 0.1	0.1 to 1
COC(=O)C(Cc1ccc(-n2cc(-c3cc(F)cc(CNC(=O)c4ncnc5nc(C6CCCC6)[nH]c45)c3)cn2)cc1)NC(=O)c1ncnc2nc(C3CCCC3)[nH]c12 (stereo not drawn) [Example 150, Methyl 2-(8-cyclopentyl-7H-purine-6-carboxamido)-3-(4-(4-(3-((8-cyclopentyl-7H-purine-6-carboxamido)methyl)-5-fluorophenyl)-1H-pyrazol-1-yl)phenyl)propanoate]	0.1 to 1	> 10
[2H]C([2H])([2H])n1cc(Nc2cc(F)cc(CNC(=O)c3ncnc4nc(C5CCCC5)[nH]c34)c2)cn1 [Example 151, 8-Cyclopentyl-N-(3-fluoro-5-((1-(methyl-d3)-1H-pyrazol-4-yl)amino)benzyl)-7H-purine-6-carboxamide]	< 0.1	0.1 to 1
[2H]C([2H])([2H])n1cc(Nc2cc(F)cc(CNC(=O)c3ncnc4nc(C5CCC(F)(F)C5)[nH]c34)c2)cn1 (stereo not drawn) [Example 152, 8-(3,3-Difluorocyclopentyl)-N-(3-fluoro-5-((1-(methyl-d3)-1H-pyrazol-4-yl)amino)benzyl)-7H-purine-6-carboxamide]	< 0.1	0.1 to 1

The next lines start with the values.

DC50 (HIF-1α) [µM]	IC50 (VEGF) [µM]	Structure (SMILES)
< 0.1	< 0.1	O=C(NCc1cc(F)cc(-c2cnn(C3CCCCC3)c2)c1)c1ncnc2nc(C3CCCC3)[nH]c12 [Example 139, N-(3-(1-cyclohexyl-1H-pyrazol-4-yl)-5-fluorobenzyl)-8-cyclopentyl-7H-purine-6-carboxamide]
< 0.1	< 0.1	O=C(NCc1cc(F)cc(-c2cnn(-c3cscn3)c2)c1)c1ncnc2nc(C3CCCC3)[nH]c12 [Example 141, 8-Cyclopentyl-N-(3-fluoro-5-(1-(thiazol-4-yl)-1H-pyrazol-4-yl)benzyl)-7H-purine-6-carboxamide]
0.1 to 1	0.1 to 1	Cc1nn(-c2ccc(F)cc2)cc1-c1cc(F)cc(CNC(=O)c2ncnc3nc(C4CCCC4)[nH]c23)c1 [Example 146, 8-Cyclopentyl-N-(3-fluoro-5-(1-(4-fluorophenyl)-3-methyl-1H-pyrazol-4-yl)benzyl)-7H-purine-6-carboxamide]
0.1 to 1	> 10	O=C(NCc1cc(F)cc(-n2cc(-c3ccc(F)cc3)cn2)c1)c1ncnc2nc(C3CCCC3)[nH]c12 [Example 149, 8-Cyclopentyl-N-(3-fluoro-5-(4-(4-fluorophenyl)-1H-pyrazol-1-yl)benzyl)-7H-purine-6-carboxamide]
< 0.1	0.1 to 1	[2H]C1([2H])C(c2nc3ncnc(C(=O)NCc4cc(F)cc(-c5cnn(-c6ccc(F)cc6)c5)c4)c3[nH]2)C([2H])([2H])C([2H])([2H])C1([2H])[2H] [Example 153, 8-(Cyclopentyl-2,2,3,3,4,4,5,5-d8)-N-(3-fluoro-5-(1-(4-fluorophenyl)-1H-pyrazol-4-yl)benzyl)-7H-purine-6-carboxamide]
